Results on 8 molecules are retold here after patent publication US10584116B2, “Heterocyclic sulfonamide derivative and medicine containing same” (EA Pharma Co., Ltd., priority 2016, dated 2020).

In one assay the target is TRPA1 channel (Rattus norvegicus (Rat), UniProt Q6RI86). Kind of assay: AITC-induced rat blood flow evaluation test. The format is in vivo. Conditions: for rat blood flow model (% inh.): oral, 60 min before AITC (1%) application to ear, male SD rats. As for the experimental part:
AITC-Induced Rat Blood Flow Evaluation Test
To evaluate the effectiveness of the test substance in vivo, allylisothiocyanate (AITC)-induced blood flow evaluation test was performed using rat.
AITC is a selective agonist of the TRPA1 channel, and causes an increase in the peripheral blood flow through TRPA1 activation when applied to animal. Therefore, the intensity of the TRPA1 antagonist action of the test substance in the living body can be evaluated by measuring the increase in the peripheral blood flow after AITC application.
1. Administration of Test Substance to Animal
As the animal, 9-11-week-old male SD rats were used. A test substance was orally administered 60 min before AITC application and evaluated. On the previous day, the blood flow was measured when vehicle was administered to the same individual.
2. Evaluation of AITC-Induced Blood Flow
Under isoflurane anesthesia, the rats were placed in a prone position and a laser was irradiated with a probe of a laser Doppler flowmeter (OMEGA FLOW FLO-N1 neuro science, inc) at a distance of 1 cm from the ear of the rat, and the blood flow was measured, which was recorded using Power lab. After confirmation of stable blood flow, 15 μL of AITC (1%) solution was applied to be spread on the ear of the rat and the blood flow was measured for 20 min.
3. Calculatuin of Inhibitory Rate
Mean blood flow for 10 seconds at each analysis time point (1, 5, 10, 15, 20 min) was calculated, and the amount of change from the blood flow before AITC application was calculated as AUC (Area under the curve). AUC (% of baseline) was determined by normalizing the value obtained by (mean of AUC after test substance administration/mean of AUC after vehicle administration to the same individual)×100 with the ratio of AUC obtained by vehicle administration for the both days. The inhibition ratio was determined by 100−AUC (% of baseline).

The target of a further assay is human TRPA1 (Homo sapiens (Human), UniProt O75762). Kind of assay: Measurement of TRPA1 antagonist activity (intracellular calcium increase induced by allylisothiocyanate in 293T cells transfected with human TRPA1). The format is cell-based. Conditions: 293T cells expressing human TRPA1, allylisothiocyanate stimulation, FLIPR Calcium4 fluorescence; read-out: hTRPA1 IC50. As for the experimental part:
Measurement of TRPA1 Antagonist Activity
Human TRPA1 Expression Plasmid
Using cDNA encoding human TRPA1 (GenBank accession No. NM_007332) (manufactured by Kazusa DNA Research Institute, item No. FHC07217) as a template, primer 1 (SEQ ID NO: 1) and primer 2 (SEQ ID NO: 2), PCR by PfuUltra High-Fidelity DNA Polymerase (Stratagene) was performed, and full-length human TRPA1 gene was amplified.
A recognition site (underlined) of restriction enzyme HindIII was added to the 5′ end of human TRPA1 gene, and XbaI site (underlined) was added to the 3′ end of human TRPA1 gene, and GTT of the template sequence was changed to termination codon TAG (bold). The obtained double stranded DNA was enzyme-digested with HindIII and XbaI, and introduced into a multicloning site of expression plasmid pcDNA3.1/zeo(+) (manufactured by Invitrogen) to give a human TRPA1 expression plasmid.
Human embryonic kidney-derived 293T cells were cultured in Dulbecco's Modified Eagle Medium containing 10% fetal bovine serum, 10 unit penicillin, and 10 μg streptomycin. One day before assay, 3×10^6 of 293T cells were plated on a petri dish having a diameter of 10 cm, and cultured in a CO2 incubator for 24 hr. OPTI-MEM I Reduced Serum Media (Invitrogen) (600 μL), Mirus TransIT-293 (Mirus Bio) (18 μL), and human TRPA1 expression plasmid (6 μg) were mixed, the total amount of the mixture was added to the cells on the petri dish to allow for gene transfer. The cells were recovered about for 8 hr later, plated on a poly-D-lysine coated 384 well black/clear bottom plate at 12,000 cells/well, and cultured overnight.
Measurement of Intracellular Calcium Increase
The medium was removed from the 384 well plate, calcium indicator (Molecular Device, trade name: FLIPR Calcium4 Assay Kit) dissolved in HBSS (Thermo Fisher Scientific) (pH 7.2) containing 20 mM HEPES was added (38 μL/well), and the cells were stained in a CO2 incubator for 1 hr. The 384 well plate was stood at room temperature for not less than 15 min, set on FDSS7000 (Hamamatsu Photonics K.K.), and a test substance solution was added at 10 μL/well. After 10 min, allylisothiocyanate solution (12 μL/well) was added, the relative fluorescence intensity was measured for 5 min after addition of the allylisothiocyanate solution.
Test Substance Preparation
Preparation of Test Substance Solution and Allylisothiocyanate Solution
A test substance solution was prepared to have a composition of HBSS (Thermo Fisher Scientific) (pH 7.2) containing 0.48% dimethyl sulfoxide, a test substance at 4.8-fold concentration of the evaluation concentration, 0.1% bovine serum albumin and 20 mM HEPES. An allylisothiocyanate solution was prepared to have a composition of HBSS (Thermo Fisher Scientific) (pH 7.2) containing 0.1% dimethyl sulfoxide, 100 μM allylisothiocyanate, 0.1% bovine serum albumin and 20 mM HEPES.
Calculation of Antagonist Activity
The activity rate of a test substance at each concentration was calculated, wherein the relative fluorescence intensity change of a well free of a test substance and containing allylisothiocyanate is 100% activity rate, and the relative fluorescence intensity change of a well free of a test substance and allylisothiocyanate is 0% activity rate. The inhibitory rate of a test substance at each concentration was calculated by subtracting the activity rate of the test substance from 100% activity rate, and the concentration of a test substance showing 50% inhibitory rate was calculated as IC50 from the sigmoid approximate curve by XLfit (idbs).

Sequence of TRPA1 channel (Q6RI86 whole entry): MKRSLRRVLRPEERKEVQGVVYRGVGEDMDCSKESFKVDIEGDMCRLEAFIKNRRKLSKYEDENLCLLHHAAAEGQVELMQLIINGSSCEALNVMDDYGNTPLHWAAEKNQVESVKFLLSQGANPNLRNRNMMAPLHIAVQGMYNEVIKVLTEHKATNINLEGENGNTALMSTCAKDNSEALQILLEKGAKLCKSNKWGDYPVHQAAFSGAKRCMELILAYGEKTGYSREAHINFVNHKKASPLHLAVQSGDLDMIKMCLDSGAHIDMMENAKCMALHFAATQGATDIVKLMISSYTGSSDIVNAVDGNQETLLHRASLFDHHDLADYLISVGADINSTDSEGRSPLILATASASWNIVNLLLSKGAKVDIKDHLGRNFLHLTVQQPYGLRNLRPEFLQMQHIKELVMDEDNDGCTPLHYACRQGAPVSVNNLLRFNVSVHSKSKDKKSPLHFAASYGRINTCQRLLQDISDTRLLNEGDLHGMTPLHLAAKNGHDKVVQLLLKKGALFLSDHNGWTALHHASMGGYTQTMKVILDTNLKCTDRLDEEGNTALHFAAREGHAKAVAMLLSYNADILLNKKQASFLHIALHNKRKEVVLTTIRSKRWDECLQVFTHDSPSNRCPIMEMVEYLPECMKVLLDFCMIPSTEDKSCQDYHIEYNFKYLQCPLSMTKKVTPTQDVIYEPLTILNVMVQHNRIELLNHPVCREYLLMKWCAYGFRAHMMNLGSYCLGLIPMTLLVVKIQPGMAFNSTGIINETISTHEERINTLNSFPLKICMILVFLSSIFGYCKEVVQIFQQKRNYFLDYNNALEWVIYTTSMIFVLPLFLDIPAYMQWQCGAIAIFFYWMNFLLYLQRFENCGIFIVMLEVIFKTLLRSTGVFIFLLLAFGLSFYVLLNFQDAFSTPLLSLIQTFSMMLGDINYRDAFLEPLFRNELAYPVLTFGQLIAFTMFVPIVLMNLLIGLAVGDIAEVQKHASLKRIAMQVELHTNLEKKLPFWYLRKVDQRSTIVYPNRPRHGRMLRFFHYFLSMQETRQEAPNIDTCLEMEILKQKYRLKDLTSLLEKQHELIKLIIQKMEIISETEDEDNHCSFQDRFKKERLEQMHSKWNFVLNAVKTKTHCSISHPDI
Sequence of human TRPA1 (O75762 whole entry): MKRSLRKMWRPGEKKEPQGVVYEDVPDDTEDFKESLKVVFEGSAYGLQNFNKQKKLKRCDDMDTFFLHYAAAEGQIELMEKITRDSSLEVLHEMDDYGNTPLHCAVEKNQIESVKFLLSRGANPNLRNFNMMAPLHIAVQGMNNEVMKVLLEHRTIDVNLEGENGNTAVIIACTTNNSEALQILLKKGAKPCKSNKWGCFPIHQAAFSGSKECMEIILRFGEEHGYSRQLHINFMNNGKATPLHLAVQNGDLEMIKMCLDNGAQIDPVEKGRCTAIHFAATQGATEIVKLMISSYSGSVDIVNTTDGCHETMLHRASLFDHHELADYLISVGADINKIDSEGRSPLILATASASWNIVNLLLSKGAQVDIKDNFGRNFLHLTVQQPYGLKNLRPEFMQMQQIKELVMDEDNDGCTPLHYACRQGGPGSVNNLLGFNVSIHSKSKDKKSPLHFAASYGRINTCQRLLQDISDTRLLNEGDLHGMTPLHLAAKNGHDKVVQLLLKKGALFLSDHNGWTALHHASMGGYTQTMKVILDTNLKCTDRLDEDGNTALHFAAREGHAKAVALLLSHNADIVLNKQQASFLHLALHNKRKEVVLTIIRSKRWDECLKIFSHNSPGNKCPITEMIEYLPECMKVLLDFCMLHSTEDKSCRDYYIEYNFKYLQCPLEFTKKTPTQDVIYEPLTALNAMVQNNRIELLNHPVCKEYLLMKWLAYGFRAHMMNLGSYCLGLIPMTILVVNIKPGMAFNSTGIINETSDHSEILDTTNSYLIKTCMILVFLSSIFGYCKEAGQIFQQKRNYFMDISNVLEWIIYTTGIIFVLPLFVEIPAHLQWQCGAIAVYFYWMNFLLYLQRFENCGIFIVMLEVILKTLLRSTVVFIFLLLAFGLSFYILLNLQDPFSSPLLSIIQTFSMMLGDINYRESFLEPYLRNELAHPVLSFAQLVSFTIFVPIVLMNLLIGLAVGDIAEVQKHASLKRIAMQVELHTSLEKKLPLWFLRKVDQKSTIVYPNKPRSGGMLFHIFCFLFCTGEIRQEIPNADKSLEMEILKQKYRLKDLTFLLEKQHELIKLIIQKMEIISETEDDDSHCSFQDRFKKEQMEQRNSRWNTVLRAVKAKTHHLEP

For `CC(C)n1c(=O)c(CNC(=O)[C@@H]2CCCN2S(=O)(=O)c2cc3ccccc3o2)cn(-c2ccc(C(F)(F)F)cc2)c1=O` [Example 1, (2S)-1-(benzofuran-2-ylsulfonyl)-N-[[3-isopropyl-2,4-dioxo-1-[4-(trifluoromethyl)phenyl]pyrimidin-5-yl]methyl]pyrrolidine-2-carboxamide], the “AITC-induced increase in the blood flow” value at TRPA1 channel (FIG. 1, rats, doses 0.3, 1 and 3 mg/kg) is reported as “suppressed”. The “rat blood flow model (% inh.)” value is reported as 45 % inh at TRPA1 channel (dose 0.3 mg/kg), 56 % inh at TRPA1 channel (dose 1 mg/kg) and 58 % inh on TRPA1 channel (dose 3 mg/kg). Also, on human TRPA1, the IC50 is 16 nM. For `CC(C)n1cc(CNC(=O)[C@@H]2CCCN2S(=O)(=O)c2cc3c(F)cccc3o2)cc(-c2ccc(C(F)(F)F)cc2)c1=O` [Example 45, (2S)-1-(4-fluorobenzofuran-2-yl)sulfonyl-N-[[1-isopropyl-6-oxo-5-[4-(trifluoromethyl)phenyl]-3-pyridyl]methyl]pyrrolidine-2-carboxamide], the IC50 on human TRPA1 stood at 86 nM. Regarding `CC(C)n1cc(CNC(=O)[C@@H]2CCCN2S(=O)(=O)c2cc3cnccc3o2)cc(-c2ccc(C(F)(F)F)cc2)c1=O` [Example 46, (2S)-1-fro[3,2-c]pyridin-2-ylsulfonyl-N-[[1-isopropyl-6-oxo-5-[4-(trifluoromethyl)phenyl]-3-pyridyl]methyl]pyrrolidine-2-carboxamide], the IC50 at human TRPA1 was determined as 98 nM.

On to `CC(C)n1cc(CNC(=O)[C@@H]2[C@@H](O)CCN2S(=O)(=O)c2cc3cc(F)ccc3o2)cc(-c2ccc(C(F)(F)F)cc2)c1=O` [Example 47, (2S,3S)-1-(5-fluorobenzofuran-2-yl)sulfonyl-3-hydroxy-N-[[1-isopropyl-6-oxo-5-[4-(trifluoromethyl)phenyl]-3-pyridyl]methyl]pyrrolidine-2-carboxamide], for which, on human TRPA1, the IC50 amounted to 230 nM.

Turning to `CC(C)n1cc(CNC(=O)[C@@H]2CCCN2S(=O)(=O)c2cc3ccccc3o2)cc(-c2ccc(C(F)(F)F)nc2)c1=O` [Example 48, (2S)-1-(benzofuran-2-ylsulfonyl)-N-[[1-isopropyl-6-oxo-5-[6-(trifluoromethyl)-3-pyridyl]-3-pyridyl]methyl]pyrrolidine-2-carboxamide], the IC50 at human TRPA1 is 210 nM. `CC(C)n1cc(CNC(=O)[C@@H]2CCCN2S(=O)(=O)c2cc3cc(F)ccc3o2)cc(-c2ccc(C(F)(F)F)nc2)c1=O` [Example 49, (2S)-1-(5-fluorobenzofuran-2-yl)sulfonyl-N-[[1-isopropyl-6-oxo-5-[6-(trifluoromethyl)-3-pyridyl]-3-pyridyl]methyl]pyrrolidine-2-carboxamide]: the IC50 on human TRPA1 worked out at 45 nM. The same measure, in the same setting: with `CC(C)n1cc(CNC(=O)[C@@H]2CCCN2S(=O)(=O)c2cc3ccccc3o2)cc(-c2ccc(C(F)(F)F)cn2)c1=O` [Example 50, (2S)-1-(benzofuran-2-ylsulfonyl)-N-[[1-isopropyl-6-oxo-5-[5-(trifluoromethyl)-2-pyridyl]-3-pyridyl]methyl]pyrrolidine-2-carboxamide] the figure was 110 nM; with `CC(C)n1cc(CNC(=O)[C@@H]2CCCN2S(=O)(=O)c2cc3cc(F)ccc3o2)cc(-c2ccc(C(F)(F)F)cn2)c1=O` [Example 51, (2S)-1-(5-fluorobenzofuran-2-yl)sulfonyl-N-[[1-isopropyl-6-oxo-5-[5-(trifluoromethyl)-2-pyridyl]-3-pyridyl]methyl]pyrrolidine-2-carboxamide], 81 nM.

As a reminder, the IC50 is the midpoint of a concentration-inhibition curve.
